This is an account of results in US7491705B2, “Alpha-ketoamide derivative, and production method and use thereof” (Senju Pharmaceutical Co., Ltd., priority 2003, dated 2009).

The test system of data set [1] is Caco-2 cells. Briefly: Permeability test with Caco-2 cells. As to conditions: apical pH 6.5 → basolateral pH 7.4; 10 μm sample; 37° C. Background: Caco-2 monolayers are a common model of the intestinal barrier.
Procedure: (§1) As a culture medium for the incubation, Dulbecco's modified Eagle's minimum essential medium (GIBCO BRL) supplemented with 10% fetal calf serum (GIBCO BRL), antibiotic-antimycotic mixture, liquid (GIBCO BRL), non-essential amino acid solution (GIBCO BRL) and 2 mmol/L L-glutamine (GIBCO BRL) was used. […] Propranolol was used as a positive control, and ^14C-mannitol was used as a negative control. LC-MS/MS was used for quantitative analysis of samples, and a liquid scintillation counter was used for quantitative analysis of ^14C-mannitol.
(§2) Papp: apparent permeation coefficient (cm/sec)
δQ/δt: permeation velocity (pmol/min)
A: area of monolayer cell=0.33 cm^2
(§3) C0: initial concentration at apical membrane side (pmol/mL)
A short description of data set [2]: Solubility in 10 mM phosphate buffer (pH 7.0). It counts as physicochemical. Here is the method:
Solubility of the compounds of the present invention in 10 mM phosphate buffer (pH 7.0) was measured.

A short description of data set [3]: in vitro. The conditions noted are these: human, Caco-2.
Procedure: as §1, §2
δQ/δt: permeation velocity (pmol/min)
A: area of monolayer cell=0.33 cm^2
as §3
Data set [4] can be described thus: Partition coefficient using IAM column. As to conditions: IAM Fast Screening Mini-Column; Dulbecco's phosphate buffer (pH 7.4). It counts as physicochemical. As for the experimental part: Analysis by HPLC system was carried out under the conditions given below, and retention time of each substance was measured. • Column: IAM Fast Screening Mini-Column (Regis Technologies, Inc.) • Mobile phase: Dulbecco's phosphate buffer (pH 7.4) • Detection wavelength: 250 nm • Column temperature: room temperature • Injection amount: 5.0 to 20 μL • Flow rate: 0.5 mL/min • Sample solution: 5 mg of sample was dissolved in 100 μL of acetonitrile, and a mobile phase was added to make 1 mL of a sample solution.
The measured value was inserted into the following formula, and the partition coefficient (K′ IAM) was calculated. k′IAM=(tR−t0)/t0 t0: retention time of the peak derived from acetonitrile tR: retention time of the peak of the sample

Data set [5] in a line: Transportation rate into blood after oral administration. Type of data set: in vivo, Macaca fascicularis (crab-eating monkey). The conditions noted are these: cynomolgus monkey, 10 mg/kg, Macaca fascicularis, plasma; for AUC(0-t): read-out: AUC 0→4 hr. Here is the method: The compound of the present invention was administered orally to Macaca fascicularis (crab-eating monkey) at a dose of 10 mg/kg. The blood was collected with the lapse of time, and the concentration of each compound in the plasma was measured.

The subject of data set [6] is T1, μ-calpain.
T1 construct: μ-calpain (derived from human red blood cells; available from Cosmo Bio Co. Ltd.); purchased Cosmo Bio Co. Ltd; host or cells: purified from human red blood cells
It counts as biochemical. As to conditions: μ-calpain derived from human red blood cells; 30° C., 60 minutes; read-out: Enzyme inhibitory activity μ-calpain (IC50). Here is the method:
(1) Measurement of Inhibitory Activity Against μ-Calpain and m-Calpain
The inhibitory activity against μ-calpain and m-calpain was assayed according to the method described in Anal. Biochem. 1993, vol. 208, p. 387-392. That is, to 2.5 μL of a DMSO solution containing a varying concentration of the test sample in a 96-well plate was added 200 μL of a reaction solution containing 0.5 mg/mL casein, 50 mM Tris-HCl buffer (pH 7.4), 20 mM dithiothreitol and 1.0 nmol μ-calpain (derived from human red blood cells; available from Cosmo Bio Co. Ltd.) or m-calpain (derived from porcine kidney; available from Cosmo Bio Co. Ltd.). After 20 mM aqueous calcium chloride (50 μL) was added thereto, the mixture was incubated at 30° C. for 60 minutes. Then, 100 μL of the reaction solution was transferred to another 96-well plate, and purified water (50 μL) and 50% aqueous solution (100 μL) of Protein Assay Dye Reagent (available from Bio-Rad Laboratories, Inc.; catalogue No. 500-600) were added thereto. The reaction mixture was allowed to stand at room temperature for 15 minutes, and its absorbance was measured at 595 nm.
The absorbance of a reaction mixture prepared in the same manner as mentioned above, except that a DMSO solution contained no sample, was used as a control value, and that of a reaction mixture prepared in the same manner as mentioned above, except that 1 mM aqueous EDTA solution (50 μL) was used in place of 20 mM aqueous calcium chloride, was used as a blank value. […] Inhibition rate (%)={1−(measured value minus blank value)/(control value minus blank value)}×100

Data set [7] relates to ganglion cells of retina. Briefly: Rat retinal ischemia reperfusion injury. Type of data set: in vivo. As to conditions: 100 mg/Kg oral, 15 minutes before ischemia and immediately after release, 7 days after reperfusion, P<0.05 vs control. As for the experimental part: Male SD rats (body weight: 150-200 g, purchased from Charles River Japan, Inc.) were used. For anesthesia, a mixture of equivalent amounts of 50 mg/mL ketamine injection and 20 mg/mL xylazine injection was administered intramuscularly at 1.0 mL/Kg body weight into the femora of the rats 15 minutes before ischemia. To achieve ischemia, the optic nerve including central retinal artery was ligated using a Sugita Clip minitype (No. 98), and the blood flow was blocked for 55 minutes. Such ligation was released 55 minutes after the above ligation, and blood flow was made to run again into retina (hereinafter, referred to as ischemia reperfusion). For normal group, central retinal artery was only exposed and ischemia was not set up. After 7 days from reperfusion in ischemia, a tissue specimen was prepared. For preparation of the tissue specimen, an excess amount of pentobarbital solution was intraperitoneally administered to sacrifice the animal, and eyeball was enucleated. The enucleated eyeball was dipped and fixed for 24 hours in a fixing solution of 2% paraformaldehyde and 2.5% glutaraldehyde (0.1 M phosphate buffer, pH 7.4). […] The stained sections were observed under an optical microscope, and ganglion cells of retina per 0.25 mm width of retina section at 1-2 mm from the center of the optic disc were counted. […]

pIC50: −log10 of the molar value. In brackets after ≈: the same amount, converted by molar mass.

Consider `OCC(O)C(O)C(O)C(O)[14CH2]O` (centres unmarked) [^14C-Mannitol, ^14C-mannitol], for which the “Caco-2 Papp(a−b)” value in data set [1] is on record as 0.6 (cms^−1) × 10^−6.

In the case of `COCCOC(=O)N[C@@H](CC(C)C)C(=O)N[C@@H](Cc1ccccc1)C(=O)C(=O)NC1CC1` [Compound 4, ((1S)-1-((((1S)-1-Benzyl-2,3-dioxo-3-(cyclopropylamino)propyl)amino)carbonyl)-3-methylbutyl)carbamic acid 2-methoxyethyl ester], the Solubility in data set [2] came out at 1300 µg/mL (≈ 2.9 mM). This molecule showed a Papp A→B at 10 μm in data set [3] of 2.7 ×10⁻⁶ cm/s. Also, in data set [4], the “IAM (Log k′IAM)” value is given as 1.20. In data set [5], the Cmax turned out to be 1200 nM and the AUC(0-t) was determined as 1.9 µM·h.

In data set [3], `CC(C)NCC(O)COc1cccc2ccccc12` (centres unmarked) [Propranolol, reference compound] showed a Papp A→B at 10 μm of 8.5 ×10⁻⁶ cm/s. The “IAM (Log k′IAM)” value in data set [4] worked out at 1.95.

`COCCOCCOCCOCCOC(=O)N[C@@H](CC(C)C)C(=O)N[C@@H](Cc1ccccc1)C(=O)C(=O)NC1CC1` [Compound 19, ((1S)-1-((((1S)-1-Benzyl-2,3-dioxo-3-(cyclopropylamino)propyl)amino)carbonyl)-3-methylbutyl)carbamic acid 11-methoxy-3,6,9-trioxaundecanyl ester] had a Solubility in data set [2] of 8300 µg/mL (≈ 14.3 mM). The “IAM (Log k′IAM)” value in data set [4] was 1.44. Further, in data set [5], the concentration peaked (Cmax) at 900 nM and the AUC(0-t) was determined as 1.6 µM·h.

`CCCCNC(=O)C(=O)[C@H](Cc1ccccc1)NC(=O)[C@H](CC(C)C)NC(=O)OCCOC` [Compound 9, ((1S)-1-((((1S)-1-Benzyl-3-butylamino-2,3-dioxo-propyl)amino)carbonyl)-3-methylbutyl)carbamic acid 2-methoxyethyl ester]: in data set [6], the pIC50 was 7.00.

In the case of `CCNC(=O)C(=O)[C@H](CCc1ccccc1)NC(=O)[C@H](CC(C)C)NC(=O)O[C@H]1CCOC1` [Compound 14, ((1S)-1-((((1S)-2,3-Dioxo-3-ethylamino-1-(phenylethyl)propyl)amino)carbonyl)-3-methylbutyl)carbamic acid (3S)-tetrahydrofuran-3-yl ester], the pIC50 in data set [6] was 6.80.

`CCNC(=O)C(=O)[C@H](Cc1ccccc1)NC(=O)[C@H](CC(C)C)NC(=O)O[C@H]1CCOC1` [Compound 2, ((1S)-1-((((1S)-1-Benzyl-2,3-dioxo-3-(ethylamino)propyl)amino)carbonyl)-3-methylbutyl)carbamic acid (3S)-tetrahydrofuran-3-yl ester]: the pIC50 in data set [6] was 6.82.

In the case of `COCCOCCOC(=O)N[C@@H](CC(C)C)C(=O)NC(Cc1ccccc1)C(=O)C(N)=O` (mixture of isomers) [Compound 23, ((1S)-1-((((1RS)-3-amino-1-benzyl-2,3-dioxopropyl)amino)carbonyl)-3-methylbutyl)carbamic acid 5-methoxy-3-oxapentyl ester], the pIC50 in data set [6] was 6.72.

Turning to `COCCOCCOC(=O)N[C@@H](CC(C)C)C(=O)N[C@@H](Cc1ccccc1)C(=O)C(=O)NC1CC1` [Compound 17, ((1S)-1-((((1S)-1-Benzyl-2,3-dioxo-3-(cyclopropylamino)propyl)amino)carbonyl)-3-methylbutyl)carbamic acid 5-methoxy-3-oxapentyl ester], the Solubility in data set [2] came out at 650 µg/mL (≈ 1.32 mM). In data set [7], the “Ganglion cell count after retinal ischemia reperfusion” value is “significantly suppressed the decrease”. Moreover, the “IAM (Log k′IAM)” value in data set [4] was 1.27. Further, in data set [5], the Cmax amounted to 1100 nM and the AUC(0-t) was found to be 2.4 µM·h.

For the molecule `COCCOCCOC(=O)N[C@@H](CC(C)C)C(=O)N[C@@H](CC(C)C)C(=O)C(=O)NCCOc1ccccc1` [Compound 22, ((1S)-1-((((1S)-2,3-Dioxo-1-(2-methylpropyl)-3-(2-phenoxyethyl)aminopropyl)amino)carbonyl)-3-methylbutyl)carbamic acid 5-methoxy-3-oxapentyl ester], the pIC50 in data set [6] was 7.05.

In turn, `COCCOCCOCCOC(=O)N[C@@H](CC(C)C)C(=O)N[C@@H](Cc1ccccc1)C(=O)C(=O)NC1CC1` [Compound 18, ((1S)-1-((((1S)-1-Benzyl-2,3-dioxo-3-(cyclopropylamino)propyl)amino)carbonyl)-3-methylbutyl)carbamic acid 8-methoxy-3,6-dioxaoctyl ester] had a Solubility in data set [2] of 5400 µg/mL (≈ 10.1 mM). Also, the “IAM (Log k′IAM)” value in data set [4] was 1.38. In data set [5], the peak level (Cmax) was 660 nM and the AUC(0-t) was 1.6 µM·h.

As for `CCNC(=O)C(=O)[C@H](Cc1ccccc1)NC(=O)[C@H](CC(C)C)NC(=O)OCCOC` [Compound 1, ((1S)-1-((((1S)-1-Benzyl-2,3-dioxo-3-(ethylamino)propyl)amino)carbonyl)-3-methylbutyl)carbamic acid 2-methoxyethyl ester], the pIC50 in data set [6] is 6.77.

For `COCCOC(=O)N[C@@H](CC(C)C)C(=O)N[C@@H](Cc1ccccc1)C(=O)C(=O)NC1CCC1` [Compound 8, ((1S)-1-((((1S)-1-Benzyl-2,3-dioxo-3-(cyclobutylamino)propyl)amino)carbonyl)-3-methylbutyl)carbamic acid 2-methoxyethyl ester], in data set [6], the pIC50 was 6.77.

In data set [2], `COCCOCCOCCOCCOCCOC(=O)N[C@@H](CC(C)C)C(=O)N[C@@H](Cc1ccccc1)C(=O)C(=O)NC1CC1` [Compound 20, ((1S)-1-((((1S)-1-Benzyl-2,3-dioxo-3-(cyclopropylamino)propyl)amino)carbonyl)-3-methylbutyl)carbamic acid 14-methoxy-3,6,9,12-tetraoxa-tetradecanyl ester] had a Solubility of 16300 µg/mL (≈ 26.1 mM).

By Solubility is commonly meant how much of the substance goes into solution per volume. Low readings indicate little dissolved substance, high ones much dissolved substance. One may read the Papp A→B as the apparent permeability from the apical to the basolateral side of a cell layer. Read a high Papp A→B as ready permeation. As a reminder, the Cmax is the maximum level reached in the sampled fluid or tissue. As usually defined, the pIC50 is the negative decadic logarithm of the IC50, by convention in mol/L.
